Data reported in patent publication EP2181708A1, “Use of Valproate for reducing CHOP levels, particularly in a mammal having SCI” (Universitat Autonoma de Barcelona, priority 2008, dated 2010).

Test system: CHOP
Experiment: Western blot of CHOP in spinal cord after contusion SCI
Type: in vivo, Sprague-Dawley rats
Description: Adult females Sprague-Dawley rats aged 11 weeks (220-250 g) were anesthetized with pentobarbital (40 mg/kg i.p.). When unresponsive, the vertebral column was exposed and a laminectomy carried out at T8-T9 levels. Rostral T7 and caudal T10 vertebral bodies were clamped with Adson stabilizing forceps, and carefully adjusted to level the spinal cord in the horizontal plane. A contusion injury was performed using the Infinite Horizon impactor device (Precision Scientific Instruments, Lexington, KY). The stainless steel impounder tip was placed at 3-4 mm above the exposed spinal cord, and then a fast impact produced applying forces of 150 or 250 kilodynes (KDyn) to the exposed spinal cord. The wound was sutured with 5-0 silk thread in the muscular plane and the skin was closed with small clips and disinfected with povidone iodine solution. Sham-operated animals received the same surgical procedure but sustained no impact injury; the spinal cord was left exposed for 5 min. The animals were maintained in a warm environment until full recovery, and received preventive antibiotic (amoxicyline) and analgesic (buprenorphine) treatment. All animals were kept under standard conditions of light and temperature and fed with food and water ad libitum. The procedures involving animals were approved by the Ethics Committee of our institution, and followed the European Communities Council Directive 86/609/EEC.
VPA was intraperitoneally administered at an initial dose of 150 mg/kg by 3 h after surgery, and then a dose of 300 mg/Kg either every 24 h or every 12 h during the first week post-surgery, following by a dose of 300 mg/Kg every 24 h for the next two weeks. Groups of rats subjected to SCI or sham operation received VPA or saline injections following the same regime. […]
Rats were re-anesthetised and decapitated at 3 dpo for sample preparation. […] After clearance, protein concentration was measured by the BCA method assay (BCA Protein Assay kit, Pierce). […]

For `CCCC(CCC)C(=O)O` [VPA, 2-propylpentanoic acid], the CHOP levels (VPA 300 mg/kg every 12 h i.p., contusion 150 and 250 KDyn, three days post-injury) was “significantly reduced”, the “CHOP level reduction, 250 KDyn versus 150 KDyn contusion” value (VPA 300 mg/kg every 12 h i.p., three days post-injury) was “more pronounced” and the CHOP levels (VPA 300mg/kg once per day i.p., vs saline, 3 days post-injury) was “did not produce changes”.
